Source: patent US7118895B2, “Process for producing aglycon by using diglycosidase and flavor-improved food containing the aglycon and converting agent to be used in the process” (Amano Enzyme Inc., priority 2000, dated 2006)

System: Crude diglycosidase
Assay: Examination of temperature in the conversion into isoflavone aglycons by diglycosidase using soybean materials
Assay type: biochemical, Penicillium multicolor IAM7153
Parameters: Decomposition efficiency of glycitin family in roasted soy flour / Decomposition efficiency of daidzin family in roasted soy flour / Decomposition efficiency of genistin family in soymilk / Decomposition efficiency of daidzin family in soymilk / Decomposition efficiency of glycitin family in defatted soybean / Decomposition efficiency of daidzin family in defatted soybean: concentration or dose not given beside the values
Conditions: for maximum isolation of aglycons: reaction at 55° C. for 6 hours
Summary of the method: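 Soybean materials (50 mg) suspended in 20 mM acetate buffer pH 4.0 reacted with crude diglycosidase diluted to 1.88 AU/mL at 80, 65, 55, 45, 37 or 30° C. Reactions stopped with ethanol at 0, 1, 3 and 6 h; isoflavone glycosides and aglycons in supernatant detected by HPLC.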

[1] = 30° C., heat treatment of enzyme no, reaction time 0 h
[2] = 30° C., heat treatment of enzyme no, reaction time 1 h
[3] = 30° C., heat treatment of enzyme no, reaction time 3 h
[4] = 30° C., heat treatment of enzyme no, reaction time 6 h
[5] = 30° C., heat treatment of enzyme yes, reaction time 6 h
[6] = 45° C., heat treatment of enzyme no, reaction time 0 h
[7] = 45° C., heat treatment of enzyme no, reaction time 1 h
[8] = 45° C., heat treatment of enzyme no, reaction time 3 h
[9] = 45° C., heat treatment of enzyme no, reaction time 6 h
[10] = 45° C., heat treatment of enzyme yes, reaction time 6 h
[11] = 45 °C, heat treatment of enzyme: no, 0 h
[12] = 45 °C, heat treatment of enzyme: no, 1 h
[13] = 45 °C, heat treatment of enzyme: no, 3 h
[14] = 45 °C, heat treatment of enzyme: no, 6 h
[15] = 45 °C, heat treatment of enzyme: yes, 6 h
[16] = 55° C., heat treatment of enzyme no, reaction time 0 h
[17] = 55° C., heat treatment of enzyme no, reaction time 1 h
[18] = 55° C., heat treatment of enzyme no, reaction time 3 h
[19] = 55° C., heat treatment of enzyme no, reaction time 6 h
[20] = 55° C., heat treatment of enzyme yes, reaction time 6 h
[21] = 55 °C, heat treatment of enzyme: no, 0 h
[22] = 55 °C, heat treatment of enzyme: no, 1 h
[23] = 55 °C, heat treatment of enzyme: no, 3 h
[24] = 55 °C, heat treatment of enzyme: no, 6 h
[25] = 55 °C, heat treatment of enzyme: yes, 6 h
[26] = 65° C., heat treatment of enzyme no, reaction time 0 h
[27] = 65° C., heat treatment of enzyme no, reaction time 1 h
[28] = 65° C., heat treatment of enzyme no, reaction time 3 h
[29] = 65° C., heat treatment of enzyme no, reaction time 6 h
[30] = 65° C., heat treatment of enzyme yes, reaction time 6 h
[31] = 65 °C, heat treatment of enzyme: no, 0 h
[32] = 65 °C, heat treatment of enzyme: no, 1 h
[33] = 65 °C, heat treatment of enzyme: no, 3 h
[34] = 65 °C, heat treatment of enzyme: no, 6 h
[35] = 65 °C, heat treatment of enzyme: yes, 6 h
[36] = 80° C., heat treatment of enzyme no, reaction time 0 h
[37] = 80° C., heat treatment of enzyme no, reaction time 1 h
[38] = 80° C., heat treatment of enzyme no, reaction time 3 h
[39] = 80° C., heat treatment of enzyme no, reaction time 6 h
[40] = 80° C., heat treatment of enzyme yes, reaction time 6 h
[41] = 80 °C, heat treatment of enzyme: no, 0 h
[42] = 80 °C, heat treatment of enzyme: no, 1 h
[43] = 80 °C, heat treatment of enzyme: no, 3 h
[44] = 80 °C, heat treatment of enzyme: no, 6 h
[45] = 80 °C, heat treatment of enzyme: yes, 6 h

## O=c1c(-c2ccc(O)cc2)coc2cc(O)ccc12 [daidzein]
[1]
  Decomposition efficiency of daidzin family in concentrated soybean protein: 3.0%
  Decomposition efficiency of daidzin family in defatted soybean: 14.5%
[2]
  Decomposition efficiency of daidzin family in concentrated soybean protein: 26.2%
  Decomposition efficiency of daidzin family in defatted soybean: 53.4%
[3]
  Decomposition efficiency of daidzin family in concentrated soybean protein: 42.7%
  Decomposition efficiency of daidzin family in defatted soybean: 54.8%
[4]
  Decomposition efficiency of daidzin family in concentrated soybean protein: 52.5%
  Decomposition efficiency of daidzin family in defatted soybean: 54.9%
[5]
  Decomposition efficiency of daidzin family in concentrated soybean protein: 3.2%
  Decomposition efficiency of daidzin family in defatted soybean: 54.6%
30 °C, heat treatment of enzyme: no, 0 h
  Decomposition efficiency of daidzin family in soymilk: 9.1%
30 °C, heat treatment of enzyme: no, 1 h
  Decomposition efficiency of daidzin family in soymilk: 41.8%
30 °C, heat treatment of enzyme: no, 3 h
  Decomposition efficiency of daidzin family in soymilk: 47.2%
30 °C, heat treatment of enzyme: no, 6 h
  Decomposition efficiency of daidzin family in soymilk: 53.8%
30 °C, heat treatment of enzyme: yes, 6 h
  Decomposition efficiency of daidzin family in soymilk: 9.1%
35 °C, heat treatment of enzyme: no, 0 h
  Decomposition efficiency of daidzin family in roasted soy flour: 3.6%
35 °C, heat treatment of enzyme: no, 1 h
  Decomposition efficiency of daidzin family in roasted soy flour: 41.4%
35 °C, heat treatment of enzyme: no, 3 h
  Decomposition efficiency of daidzin family in roasted soy flour: 54.7%
35 °C, heat treatment of enzyme: no, 6 h
  Decomposition efficiency of daidzin family in roasted soy flour: 60.4%
35 °C, heat treatment of enzyme: yes, 6 h
  Decomposition efficiency of daidzin family in roasted soy flour: 5.8%
[6]
  Decomposition efficiency of daidzin family in concentrated soybean protein: 3.1%
  Decomposition efficiency of daidzin family in defatted soybean: 16.2%
[7]
  Decomposition efficiency of daidzin family in concentrated soybean protein: 45.3%
  Decomposition efficiency of daidzin family in defatted soybean: 54.5%
[8]
  Decomposition efficiency of daidzin family in concentrated soybean protein: 48.8%
  Decomposition efficiency of daidzin family in defatted soybean: 56.3%
[9]
  Decomposition efficiency of daidzin family in concentrated soybean protein: 55.5%
  Decomposition efficiency of daidzin family in defatted soybean: 58.3%
[10]
  Decomposition efficiency of daidzin family in concentrated soybean protein: 5.7%
  Decomposition efficiency of daidzin family in defatted soybean: 55.7%
[11]
  Decomposition efficiency of daidzin family in roasted soy flour: 3.7%
  Decomposition efficiency of daidzin family in soymilk: 8.9%
[12]
  Decomposition efficiency of daidzin family in roasted soy flour: 53.5%
  Decomposition efficiency of daidzin family in soymilk: 43.0%
[13]
  Decomposition efficiency of daidzin family in roasted soy flour: 59.4%
  Decomposition efficiency of daidzin family in soymilk: 52.0%
[14]
  Decomposition efficiency of daidzin family in roasted soy flour: 66.2%
  Decomposition efficiency of daidzin family in soymilk: 62.8%
[15]
  Decomposition efficiency of daidzin family in roasted soy flour: 8.1%
  Decomposition efficiency of daidzin family in soymilk: 8.2%
[16]
  Decomposition efficiency of daidzin family in concentrated soybean protein: 3.0%
  Decomposition efficiency of daidzin family in defatted soybean: 14.5%
[17]
  Decomposition efficiency of daidzin family in concentrated soybean protein: 55.0%
  Decomposition efficiency of daidzin family in defatted soybean: 55.0%
[18]
  Decomposition efficiency of daidzin family in concentrated soybean protein: 59.4%
  Decomposition efficiency of daidzin family in defatted soybean: 57.3%
[19]
  Decomposition efficiency of daidzin family in concentrated soybean protein: 62.3%
  Decomposition efficiency of daidzin family in defatted soybean: 59.7%
[20]
  Decomposition efficiency of daidzin family in concentrated soybean protein: 3.2%
  Decomposition efficiency of daidzin family in defatted soybean: 55.9%
[21]
  Decomposition efficiency of daidzin family in roasted soy flour: 3.7%
  Decomposition efficiency of daidzin family in soymilk: 8.6%
[22]
  Decomposition efficiency of daidzin family in roasted soy flour: 57.2%
  Decomposition efficiency of daidzin family in soymilk: 49.1%
[23]
  Decomposition efficiency of daidzin family in roasted soy flour: 67.5%
  Decomposition efficiency of daidzin family in soymilk: 58.9%
[24]
  Decomposition efficiency of daidzin family in roasted soy flour: 73.3%
  Decomposition efficiency of daidzin family in soymilk: 68.9%
[25]
  Decomposition efficiency of daidzin family in roasted soy flour: 5.3%
  Decomposition efficiency of daidzin family in soymilk: 8.6%
[26]
  Decomposition efficiency of daidzin family in concentrated soybean protein: 3.0%
  Decomposition efficiency of daidzin family in defatted soybean: 16.2%
[27]
  Decomposition efficiency of daidzin family in concentrated soybean protein: 53.9%
  Decomposition efficiency of daidzin family in defatted soybean: 55.3%
[28]
  Decomposition efficiency of daidzin family in concentrated soybean protein: 55.4%
  Decomposition efficiency of daidzin family in defatted soybean: 58.4%
[29]
  Decomposition efficiency of daidzin family in concentrated soybean protein: 56.7%
  Decomposition efficiency of daidzin family in defatted soybean: 62.7%
[30]
  Decomposition efficiency of daidzin family in concentrated soybean protein: 3.2%
  Decomposition efficiency of daidzin family in defatted soybean: 32.0%
[31]
  Decomposition efficiency of daidzin family in roasted soy flour: 3.6%
  Decomposition efficiency of daidzin family in soymilk: 9.1%
[32]
  Decomposition efficiency of daidzin family in roasted soy flour: 56.3%
  Decomposition efficiency of daidzin family in soymilk: 48.3%
[33]
  Decomposition efficiency of daidzin family in roasted soy flour: 59.8%
  Decomposition efficiency of daidzin family in soymilk: 56.1%
[34]
  Decomposition efficiency of daidzin family in roasted soy flour: 62.2%
  Decomposition efficiency of daidzin family in soymilk: 64.7%
[35]
  Decomposition efficiency of daidzin family in roasted soy flour: 4.2%
  Decomposition efficiency of daidzin family in soymilk: 8.8%
[36]
  Decomposition efficiency of daidzin family in concentrated soybean protein: 3.1%
  Decomposition efficiency of daidzin family in defatted soybean: 16.2%
[37]
  Decomposition efficiency of daidzin family in concentrated soybean protein: 31.9%
  Decomposition efficiency of daidzin family in defatted soybean: 52.4%
[38]
  Decomposition efficiency of daidzin family in concentrated soybean protein: 32.0%
  Decomposition efficiency of daidzin family in defatted soybean: 52.0%
[39]
  Decomposition efficiency of daidzin family in concentrated soybean protein: 30.7%
  Decomposition efficiency of daidzin family in defatted soybean: 51.7%
[40]
  Decomposition efficiency of daidzin family in concentrated soybean protein: 3.2%
  Decomposition efficiency of daidzin family in defatted soybean: 21.7%
[41]
  Decomposition efficiency of daidzin family in roasted soy flour: 3.7%
  Decomposition efficiency of daidzin family in soymilk: 8.9%
[42]
  Decomposition efficiency of daidzin family in roasted soy flour: 47.7%
  Decomposition efficiency of daidzin family in soymilk: 40.3%
[43]
  Decomposition efficiency of daidzin family in roasted soy flour: 47.7%
  Decomposition efficiency of daidzin family in soymilk: 39.7%
[44]
  Decomposition efficiency of daidzin family in roasted soy flour: 40.8%
  Decomposition efficiency of daidzin family in soymilk: 34.1%
[45]
  Decomposition efficiency of daidzin family in roasted soy flour: 3.8%
  Decomposition efficiency of daidzin family in soymilk: 8.8%
Concentrated soybean protein
  maximum isolation of aglycons: about 62%
Defatted soybean
  maximum isolation of aglycons: about 60%
Soy flour
  maximum isolation of aglycons: about 73%
soymilk
  maximum isolation of aglycons: about 70%
